Assay results from paper PMC9296036, “A peptide interfering with the dimerization of oncogenic KITENIN protein and its stability suppresses colorectal tumour progression” (Clinical and Translational Medicine, 2022).
Ends that are not written are not given here.

Biological target: T1, KITENIN (Mus musculus, UniProt Q80Z96)
T1 construct: decreased endogenous KITENIN protein levels in non‐transfected HCT116 and CT‐26 cells; endogenous in cells; host or cells: CT-26
T1 sequence (Q80Z96 1-526): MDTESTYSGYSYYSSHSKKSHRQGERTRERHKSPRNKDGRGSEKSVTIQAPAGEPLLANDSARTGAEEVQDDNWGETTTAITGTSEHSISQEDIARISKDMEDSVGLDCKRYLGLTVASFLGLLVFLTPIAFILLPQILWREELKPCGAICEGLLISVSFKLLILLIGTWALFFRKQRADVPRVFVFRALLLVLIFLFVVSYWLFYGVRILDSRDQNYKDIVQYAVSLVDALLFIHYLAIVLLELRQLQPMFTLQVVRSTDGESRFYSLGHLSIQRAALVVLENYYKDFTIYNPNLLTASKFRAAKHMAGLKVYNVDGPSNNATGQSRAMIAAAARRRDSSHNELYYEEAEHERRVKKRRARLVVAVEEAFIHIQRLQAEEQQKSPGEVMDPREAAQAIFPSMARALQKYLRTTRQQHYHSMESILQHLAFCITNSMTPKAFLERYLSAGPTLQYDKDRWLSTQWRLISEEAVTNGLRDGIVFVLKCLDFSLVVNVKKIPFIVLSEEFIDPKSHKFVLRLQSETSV
Assay: Endogenous KITENIN protein level in CT-26 cells (immunoblot)
Assay type: cell-based
Details: non-transfected CT-26 cells, KDIP 1 μM, 12 h
Description: Antibodies against the following proteins were obtained from the indicated suppliers: Na^+/K^+ ATPase, GFP and tubulin (Santa Cruz Biotechnology); c‐Jun, p‐c‐Jun, ERK, p‐ERK, c‐MET, p‐c‐MET and GST (Cell Signaling Technology); V5, Myc (MBL); HA and β‐actin (Sigma); KITENIN (Atlas); His and RACK1, LC3, p62, Myo10, and eukaryotic elongation factor 2 (eEF2) (Abcam). They were used with appropriate secondary antibodies (Thermo). For transient transfection analyses, Caco2, HCT116 and 293T cells were transfected with various plasmids and harvested for immunoblot analysis 48 h after transfection. For most assays using stable cell lines, mixed polyclonal cells were used to exclude clonal variation. […]
FIGURE 2 KAI1 C‐terminal interacting tetraspanin (KITENIN) dimerization‐interfering peptide (KDIP) suppresses KITENIN‐induced enhanced cell invasion through the inhibition of the homodimerization of KITENIN. […] After 48 h of treatment, KITENIN transcripts in cells were analysed by the 2^−ΔΔ ^CT method using Q‐PCR. […] Caco2 cells were co‐transfected with KITENIN‐V5/Myc and treated with or without KDIP or scrambled peptide (scr) and were immunoprecipitated with anti‐V5 antibody and detected by indicated antibodies. Numerals indicated a quantification of the MYC bands normalized to the corresponding V5 bands (left panel). […] Numerals indicated a quantification of the bands observed (left panel). […]

endogenous KITENIN protein level (in words): decreased
Sequence: YARVRRRGPRRWRLVSDEAV [KDIP]
